We go through 7 compounds from patent publication US9234200B2, “Oligonucleotide, glucocorticoid sensitivity enhancer, pharmaceutical composition, and expression vector” (National University Corporation Tokyo University of …, priority 2011, dated 2016).

Data set [1] concerns GRα and GRβ. The settings on record: HT-29 cells and MCF-7 cells; in words; cited from earlier work.
The next data set deals with Raji cells. The data set is described as follows: BrdU incorporation assay, glucocorticoid sensitivity of oligonucleotide-transfected Raji cells. Type of data set: cell-based, human. The conditions noted are these: for BrdU incorporation: absorbance at 450 nm. As to the method: In order to examine the change of glucocorticoid sensitivity of cells caused by introduction of oligonucleotide 1, cell proliferation was quantified by a 5-bromo-2′-deoxyuridine (BrdU) incorporation assay. Dexamethasone (manufactured by Biomol) was used as a glucocorticoid. The concentration of dexamethasone was set to varied concentrations of 0 μM (no addition), 0.1 μM, 0.5 μM, 1 μM, 5 μM, and 10 μM.
Raji cells were cultured in serum-free RPMI1640 medium for 12 hours to synchronize the cell cycle, and then re-suspended in RPMI1640 medium supplemented with serum and inoculated onto a 96-well plate.
After dexamethasone was added, the cells were cultured for 22 hours. Then, BrdU was added thereto, and the cells were cultured for another 2 hours. After centrifugation, the supernatant was discarded, and the cells were dried and fixed. The fixed cells were allowed to react with a peroxidase-labeled anti-BrdU antibody for 1 hour at room temperature. Subsequently, the cells were washed three times with PBS, and tetramethylbenzidine was added thereto. When noticeable coloring was observed, the reaction was stopped by adding H2SO4 (1M). After vigorous agitation, absorbance at 450 nm was measured using a plate reader.
Using the Raji cells to which dexamethasone was not added as a control, cell proliferation inhibitory rate (%) was calculated based on the relative ratio of the obtained absorbance. Here, statistical significance was assessed with one-way analysis of variance and multiple comparison. Tukey's multiple comparison was used for the multiple comparison. A significance level of P<0.05 (vs. no addition of oligonucleotide) was regarded as a significant difference.
BrdU incorporation assay was performed in the same manner as in the above, and alternation of the glucocorticoid sensitivity of the cells caused by the introduction of any one of oligonucleotides 2 to 5 was examined. Each experiment was carried out in quadruplicate. The values shown in Table 7 are average values thereof.

The subject of data set [2] is GRα and GRβ. The data set is described as follows: GRα and GRβ expression levels in Raji cells transfected with oligonucleotide (RT-PCR and PCR).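 For GAPDH: mean of three independent experiments.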 The settings on record: for GAPDH / GRα / GRβ: expression level (band intensity), oligonucleotide 300 nM by electroporation, 24 h; for GAPDH: endogenous control; for GRα/GAPDH / GRβ/GAPDH / Relative value of GRα/GRβ: oligonucleotide 300 nM; for Relative value of GRα/GRβ: cells not transfected = 1. Type of data set: cell-based, human. On the procedure:
Raji cells (manufactured by Japan Health Science Foundation) derived from human Burkitt's lymphoma were used in experiments.
Raji cells were cultured and maintained in RPMI1640 medium (manufactured by Gibco) at 37° C. in an atmosphere of 5% CO2, the RPMI1640 medium being supplemented with 10% fetal bovine serum (FBS) (manufactured by Filtoron), 100 U/ml penicillin, and 100 μg/ml streptomycin.
2×10^6 Raji cells were washed with phosphate-buffered saline (PBS) and suspended in 100 μl transfection reagent of an Amaxa cell line Nucleofector Kit V (manufactured by Lonza).
After the Raji cells were cultured in the above-described medium for 24 hours, the Raji cells were used for subsequent experiments.
The expression level of glyceraldehyde-3-phosphate dehydrogenase (GAPDH) was determined as an endogenous control.
After the Raji cells were washed with PBS, RNA was extracted using a FastPure RNA Kit (manufactured by Takara Bio Inc.), and reverse transcription was performed using a PrimeScript 1st strand cDNA synthesis kit (manufactured by Takara Bio Inc.). The obtained cDNA was amplified using Platinum Taq DNA polymerase (manufactured by Invitrogen) and PCR primers (having the base sequences shown in Table 2) specific for the gene of interest. The PCR conditions included: performing initial denaturation at 94° C. for 2 minutes; performing 35 cycles of denaturation (94° C. for 30 seconds), annealing (55° C. for 30 seconds), and extension (72° C. for 1 minute); and then performing final extension at 72° C. for 4 minutes.
After the PCR was performed, DNA was separated by […] electrophoresis on a 2% agarose gel containing ethidium bromide, and the intensity of bands was quantified using an image analyzer GEL PRINT 2000i/VGA (manufactured by Genomic Solutions).

Another data set concerns ERα and ERβ. The experiment in a line: Estrogen receptor expression level in Raji cells transfected with oligonucleotide 1 (RT-PCR and PCR). Type of data set: cell-based, human. On the procedure:
Estrogen receptor (ER) has two splice variants: ERα and ERβ. It is known that SRp30c is involved in regulating the splicing of ER mRNA.
The expressions levels of ERα and ERβ in Raji cells transfected with oligonucleotide 1 were determined by RT-PCR and PCR.
Raji cells transfected with oligonucleotide 1 were obtained in the same manner as in “Cell Culture” and “Introduction of Oligonucleotide into Cells” in Example 1. The oligonucleotide 1 concentration at the time of introduction into cells was 300 nM.
After the Raji cells were washed with PBS, RNA was extracted using a FASTPURE RNA Kit (manufactured by Takara Bio Inc.), and reverse transcription was performed using a PRIMESCRIPT 1st strand cDNA synthesis kit (manufactured by Takara Bio). The obtained cDNA was amplified using PLATINUM Taq DNA polymerase (manufactured by Invitrogen) and PCR primers (having the sequences shown in Table 8) specific for the gene of interest. The PCR conditions included: performing an initial denaturation at 94° C. for 2 minutes; performing 35 cycles of denaturation (94° C. for 30 seconds), annealing (55° C. for 30 seconds), and extension (72° C. for 1 minute); and performing a final extension at 72° C. for 4 minutes.
The expression level of GAPDH as an endogenous control was determined using PCR primers of SEQ ID Nos: 10 and 11.
After the PCR was performed, DNA was separated by […] electrophoresis on a 2% agarose gel containing ethidium bromide, and the intensity of bands was quantified using an image analyzer GEL PRINT 2000i/VGA (manufactured by Genomic Solutions Inc.).

Setting [3] is: dexamethasone 0.1 μM, quadruplicate (Table 7), label dexamethasone = no oligonucleotide transfected.
Setting [4] is: dexamethasone 0.5 μM, quadruplicate (Table 7), label dexamethasone = no oligonucleotide transfected.
Setting [5] is: dexamethasone 1 μM, quadruplicate (Table 7), label dexamethasone = no oligonucleotide transfected.
Setting [6] is: dexamethasone 5 μM, quadruplicate (Table 7), label dexamethasone = no oligonucleotide transfected.
Where [7] appears, read: expression level (band intensity), oligonucleotide 1 300 nM.

In the case of `Nc1ncn([C@H]2C[C@H](O)[C@@H](CO)O2)c(=O)n1` [5-aza-2′-deoxycytidine], the “GRα and GRβ expression levels” value in the data set with GRα and GRβ [1] was “increase GRα expression levels while decreasing GRβ expression levels”.

Take “Oligonucleotide 2: an oligonucleotide having a base sequence represented by SEQ ID NO: 2 (5′-AAAAGGGCACAGCTTCTTTTCCCATTTAATGAAA-3′) (listed as DNA, chemistry not given here)”: in the data set on Raji cells (setting [3]), the “cell proliferation inhibitory rate” value is on record as 10.541%. In the data set on Raji cells (setting [4]), the “cell proliferation inhibitory rate” value was 19.044%. Further, the “cell proliferation inhibitory rate” value in the data set with Raji cells (setting [5]) is on record as 22.769%. Besides, in the data set with Raji cells (setting [6]), the “cell proliferation inhibitory rate” value worked out at 36.402%. In the data set on GRα and GRβ [2], this compound yielded a GAPDH of 3169.938, a GRα of 3340.440, a GRβ of 4641.922 and a GRα/GAPDH of 1.054. Further, in the data set with GRα and GRβ [2], the GRβ/GAPDH came to 1.467 and the “Relative value of GRα/GRβ” value is given as 1.226.

As to “Oligonucleotide 1: an oligonucleotide having a base sequence represented by SEQ ID NO: 1 (5′-CTTTCTGGTTTTAACCACATAACATTCTATA-3′) (listed as DNA, chemistry not given here)”, the GAPDH in the data set on ERα and ERβ (expression level (band intensity), endogenous control, oligonucleotide 1 300 nM) is 2476.113; in the data set with GRα and GRβ [2], 3033.167. Further, the ERα with ERα and ERβ (setting [7]) came out at 2201.941. In the data set on ERα and ERβ (setting [7]), this compound had an ERβ of 1299.820. In addition, the “regulation of the splicing of ER mRNA” value with ERα and ERβ (in words) is “does not affect the regulation of the splicing of ER mRNA”. For the same compound, the ERα/ERβ in the data set on ERα and ERβ (oligonucleotide 1 300 nM) stood at 1.694. In addition, the ERα/GAPDH with ERα and ERβ (oligonucleotide 1 300 nM) is 0.889. In the data set on ERα and ERβ (oligonucleotide 1 300 nM), the ERβ/GAPDH stood at 0.525. Further, the “Relative value of ERα/ERβ” value in the data set on ERα and ERβ (oligonucleotide 1 300 nM, cells not transfected = 1) is “approximately 1”; in the data set on ERα and ERβ (oligonucleotide 1 300 nM, cells not transfected = 1, listed as 1) it was 1.001. The BrdU incorporation in the data set with Raji cells (dexamethasone 0 μM, triplicate) was 0.556; in the data set with Raji cells (dexamethasone 0.1 μM, triplicate, label dexamethasone = no oligonucleotide introduced) it was 0.372; with Raji cells (dexamethasone 0.5 μM, triplicate, label dexamethasone = no oligonucleotide introduced), 0.286; with Raji cells (dexamethasone 1 μM, triplicate, label dexamethasone = no oligonucleotide introduced), 0.292; in the data set with Raji cells (dexamethasone 5 μM, triplicate, label dexamethasone = no oligonucleotide introduced), 0.271; in the data set with Raji cells (dexamethasone 10 μM, triplicate, label dexamethasone = no oligonucleotide introduced) it was 0.279. The “cell proliferation inhibitory rate” value with Raji cells (dexamethasone 0.1 μM vs no dexamethasone, triplicate, label dexamethasone = no oligonucleotide introduced) is recorded as 32.874%; in the data set on Raji cells (dexamethasone 0.5 μM vs no dexamethasone, triplicate, label dexamethasone = no oligonucleotide introduced) it was 48.364%; in the data set with Raji cells (dexamethasone 1 μM vs no dexamethasone, triplicate, label dexamethasone = no oligonucleotide introduced), 47.553%; in the data set with Raji cells (dexamethasone 5 μM vs no dexamethasone, triplicate, label dexamethasone = no oligonucleotide introduced), 50.624%; in the data set on Raji cells (dexamethasone 10 μM vs no dexamethasone, triplicate, label dexamethasone = no oligonucleotide introduced) it was 49.526%. Further, the “BrdU incorporation on addition of dexamethasone, compared to Raji cells not transfected” value in the data set with Raji cells (in words) is on record as “significant reduction in BrdU incorporation”. For the same compound, the “cell proliferation inhibitory rate on addition of dexamethasone, compared to Raji cells not transfected” value with Raji cells (in words) was “significant increase in cell proliferation inhibitory rate”. Moreover, the “glucocorticoid sensitivity of cells” value with Raji cells (in words) is given as “increased the glucocorticoid sensitivity of cells”. The compound also showed a GRα with GRα and GRβ [2] of 3278.767. In the data set on GRα and GRβ [2], this compound registered a GRβ of 4611.084. The GRα/GAPDH in the data set with GRα and GRβ [2] is recorded as 1.082. In addition, the GRβ/GAPDH with GRα and GRβ [2] came out at 1.519. Also, the “Relative value of GRα/GRβ” value in the data set with GRα and GRβ [2] was found to be 1.213. Also, the “expression level of GRβ, concentration dependency” value in the data set on GRα and GRβ [2] (various concentrations of oligonucleotide 1) is on record as “decreased the expression level of GRβ in a concentration-dependent manner”.

Regarding “Oligonucleotide 5: an oligonucleotide having a base sequence represented by SEQ ID NO: 5 (5′-CAGATTTTTTTATTATGATGT-3′) (listed as DNA, chemistry not given here)”, the “cell proliferation inhibitory rate” value with Raji cells (setting [3]) was 29.842%. In addition, the “cell proliferation inhibitory rate” value in the data set on Raji cells (setting [4]) stood at 26.632%. Also, the “cell proliferation inhibitory rate” value in the data set with Raji cells (setting [5]) is listed as 32.895%. The “cell proliferation inhibitory rate” value in the data set with Raji cells (setting [6]) is listed as 36.053%. In the data set with GRα and GRβ [2], this compound displayed a GAPDH of 3087.403, a GRα of 3210.228, a GRβ of 4516.989 and a GRα/GAPDH of 1.041. For the same compound, in the data set with GRα and GRβ [2], the GRβ/GAPDH was 1.461 and the “Relative value of GRα/GRβ” value came out at 1.210.

`CCCC(=O)[O-].[Na+]` [sodium butyrate]: the “GRα and GRβ expression levels” value in the data set with GRα and GRβ [1] is reported as “increase GRα expression levels while decreasing GRβ expression levels”.

In the case of “Oligonucleotide 3: an oligonucleotide having a base sequence represented by SEQ ID NO: 3 (5′-TAAGATGACTTTCTTTTCCCCCACGTATCCT-3′) (listed as DNA, chemistry not given here)”, the “cell proliferation inhibitory rate” value in the data set on Raji cells (setting [3]) was determined as 16.924%. Besides, the “cell proliferation inhibitory rate” value in the data set with Raji cells (setting [4]) came to 34.134%. For the same compound, the “cell proliferation inhibitory rate” value in the data set on Raji cells (setting [5]) was 37.164%. In addition, the “cell proliferation inhibitory rate” value in the data set on Raji cells (setting [6]) is 48.256%. In the data set on GRα and GRβ [2], this compound registered a GAPDH of 3128.467, a GRα of 3177.814, a GRβ of 4596.457 and a GRα/GAPDH of 1.015. In addition, in the data set with GRα and GRβ [2], the GRβ/GAPDH is 1.471 and the “Relative value of GRα/GRβ” value is 1.182.

Regarding `CC(/C=C/C(=O)NO)=C\[C@@H](C)C(=O)c1ccc(N(C)C)cc1` [trichostatin A], in the data set on GRα and GRβ [1], the “GRα and GRβ expression levels” value is given as “increase GRα expression levels while decreasing GRβ expression levels”.
